Drawing on patent US20210315893A1 (Galapagos NV, priority 2017, published 2021), this text covers EC50 for 15 compounds.

For orientation: EC50 means the concentration that produces a half-maximal response.

Experiment [1] deals with HFL-1 cells. Nature of the experiment: IL-8 production assay (S1P induced IL-8). The following applies: Homo sapiens, HFL1; S1P (1 μM) induced IL-8 in HFL-1 cells, starvation medium without HSA; read-out: IL8 EC50. It is filed as cell-based. The method in brief: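 HFL-1 human fetal lung fibroblasts were starved in F12K/1% FBS, then given compound for 1 h (10-point, 1/3 dilution, 30 μM top, 0.3% DMSO final). S1P was added at 1 μM final for 16–24 h at 37 °C, and secreted IL-8 in supernatant quantified by ELISA.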

The test system of experiment [2] is HFL-1 cells. Nature of the experiment: IL8 assay in the presence of Human Serum Albumin. The following applies: HFL1, read-out: HSA IL8 EC50.
Experimental: To evaluate the influence of plasma protein binding of S1P as well as compound, the S1P induced IL-8 levelswereevaluatedin presence of Human Serum Albumin (HSA, equivalent to 40% human serum).
Human Fetal Lung cells (HFL-1) are seeded in 96 well plates in growth medium (F12K+10% heat inactivated FBS+1% Pen/strep). […] On day three, compounds are added (10 point serial dilution, 30 μM highest concentration, 1/3 dilution, 0.3% DMSO final) and plates are incubated for 1 h at 37° C., 5% CO2. Subsequently S1P at 5 μM final concentration is added and plates are incubated for 16 to 24 h at 37° C., 5% COafter which the supernatant was collected. IL-8 levels in the supernatant are determined with the IL-8 ELISA of R&D systems.
Experiment [3] concerns the target T1, human GPCR sphingosine 1-phosphate receptor 5 (Homo sapiens, UniProt Q9H228).
T1 construct: host or cells: CHO
Kind of experiment: S1PR5 selectivity Ca2+ flux assay (antagonist readout). It is filed as cell-based. The following applies: CHO cells overexpressing human S1PR5 and Gq, agonist at EC80 (20 nM), read-out: S1P5 EC50 (nM), S1P5 antagonist EC50. The source says:
To evaluate the selectivity of the compounds for S1PR2 over S1PR1 and S1PR5, asimilar assay set upas described above for theS1PR2 calcium flux assays waspeformed: CHO cells stably overexpressing human GPCR sphingosine 1-phosphate receptor 1 and Gq protein (Euroscreen, FAST-0197A) or overexpressing human GPCR sphingosine 1-phosphate receptorS5 and Gq protein were used (Perkin Elmer, ES-593-A). In case of the S1PR5 assay triggering was done with an SPR5 specific agonist instead of with S1P (Hobson et al., 2015).
(§1) 50 μL of Chinese hamster ovary (CHO) cells stably overexpressing human S1PR1 or S1PR5 are seeded in 384 well sterile microplates (7,500 cells/well or 10,000 cells/well respectively) and are incubated overnight at 37° C. under 5% CO2. Cells are subsequently washed twice with 25 μL/well of starvation medium (F-12 Ham's medium containing 0.1% fatty acid free bovine serum albumin (FAF BSA)). After one h starvation at 37° C., 5% CO2, cells are loaded with 25 μL of Fluo 8 dye diluted in Hank's balanced salt solution (HBSS) with 20 mM Hepes complemented with 5 mM of probenecid following the recommendations of the manufacturer (one h at 37° C., 5% CO2). Dilution series of compounds are prepared in HBSS buffer with 20 mM Hepes and 0.1% BSA (FAF). 10 μL of diluted compound is added to the cells using the FDSS/pCELL and intracellular calcium changes are measured immediately by recording fluorescence during 3 min (agonist readout). The ratio of maximal signal over background before compound injection is used to determine compound response.
After an incubation of 15 min at 37° C., following the agonist readout, the plates are transferred to the FDSS/pCELL reader. Cells are stimulated with 10 μL of EC80 concentration of S1P (6 nM for S1P1 and 20 nM for S1P5) and intracellular calcium changes are measured immediately by recording fluorescence during three min (antagonist readout). The ratio of maximal signal over background before S1P injection was used to determine the inhibitory effect ofthe compound.
(§2) Raw data obtained in each experiment (ratio of maximal signal over background for calcium mobilization assays) were normalized in percentage of activation (agonist mode) or inhibition (antagonist mode) using positive and negative experiment controls. Each individual plate quality was assessed by evaluation of Z′ factor calculated with raw data using the following equation
(§3) Y=bottom+(top−bottom)/(1+(10^(Log IC50−X)*Hillslope)) where X is the logarithm of the concentration of the compound

Experiment [4] concerns the target T2, human GPCR sphingosine 1-phosphate receptor 1 (Homo sapiens, UniProt P21453).
T2 construct: host or cells: CHO
Kind of experiment: S1PR1 selectivity Ca2+ flux assay (antagonist readout). The class given is cell-based. The following applies: antagonist readout, CHO cells overexpressing human S1PR1 and Gq, S1P at EC80 (6 nM); read-out: S1P1 EC50 (nM), S1P1 antagonist EC50. The procedure:
as §1
After an incubation of 15 min at 37° C., following the agonist readout, the plates are transferred to the FDSS/pCELL reader. […] The ratio of maximal signal over background before S1P injection was used to determine the inhibitory effect ofthe compound.
as §2, §3
In general terms: Calcium assays in cells follow changes in intracellular calcium, usually with a dye or a luminescent sensor.

Experiment [5] addresses T3, human GPCR sphingosine 1-phosphate receptor 2 (Homo sapiens, UniProt O95136).
T3 construct: host or cells: CHO
Nature of the experiment: S1PR2 antagonist Ca2+ flux assay. The following applies: antagonist mode, CHO-S1PR2 cells, S1P at EC80, Ca2+ fluorescence; read-out: S1P2 EC50 (nM), S1P2 antagonist EC50. It is filed as cell-based. The method in brief:
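CHO cells stably expressing human S1PR2, serum-starved 1 h, Fluo8-loaded; compound-evoked Ca2+ fluorescence read 3 min (agonist mode), then after 15 min S1P at EC80 added and read 3 min (antagonist mode). Max/baseline fluorescence ratios normalised to vehicle and S1P EC100 or EC50 controls; EC50 derived.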

The next experiment deals with T4, S1PR2 (Homo sapiens, UniProt O95136).
T4 construct: expressed in transfected cells
Kind of experiment: S1PR2 binding assay (competition with radioactively labeled S1P, SpA). The following applies: membranes from stable cell line over expressing S1PR2, SpA beads; read-out: S1P2 EC50 (nM), S1PR2 binding EC50. In a few lines: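 Competition with [3H]S1P for membranes from a stable S1PR2-overexpressing cell line, 20 μg/well, captured on PVT-WGA SPA beads, in 20 mM Tris pH 7.5, 10 mM MgCl2, 100 mM NaCl, 0.4% fatty-acid-free BSA, 1 mM Na3VO4. 2 h at room temperature, then centrifugation and scintillation counting.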

T2 sequence (P21453 whole entry): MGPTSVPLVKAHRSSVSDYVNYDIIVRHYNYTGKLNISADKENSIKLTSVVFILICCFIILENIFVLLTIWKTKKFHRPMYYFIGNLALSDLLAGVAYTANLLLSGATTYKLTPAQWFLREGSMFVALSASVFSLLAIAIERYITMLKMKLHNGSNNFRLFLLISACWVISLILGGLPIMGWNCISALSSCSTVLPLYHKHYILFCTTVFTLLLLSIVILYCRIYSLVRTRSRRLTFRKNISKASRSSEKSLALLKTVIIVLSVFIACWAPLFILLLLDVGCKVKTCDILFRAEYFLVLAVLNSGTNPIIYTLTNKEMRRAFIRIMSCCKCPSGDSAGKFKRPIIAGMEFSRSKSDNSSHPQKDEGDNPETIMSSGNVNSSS
T1 sequence (Q9H228 whole entry): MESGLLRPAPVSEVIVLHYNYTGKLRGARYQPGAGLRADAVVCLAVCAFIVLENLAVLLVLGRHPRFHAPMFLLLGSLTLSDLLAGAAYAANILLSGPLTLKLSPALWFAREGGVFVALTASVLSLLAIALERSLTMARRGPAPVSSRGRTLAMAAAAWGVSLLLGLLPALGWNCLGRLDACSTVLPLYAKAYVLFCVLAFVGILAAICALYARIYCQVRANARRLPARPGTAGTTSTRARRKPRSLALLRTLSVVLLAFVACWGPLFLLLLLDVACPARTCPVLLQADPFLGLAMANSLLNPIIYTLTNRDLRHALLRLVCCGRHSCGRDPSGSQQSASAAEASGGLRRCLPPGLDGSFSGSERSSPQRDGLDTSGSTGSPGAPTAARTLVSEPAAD
T4 sequence (O95136 whole entry): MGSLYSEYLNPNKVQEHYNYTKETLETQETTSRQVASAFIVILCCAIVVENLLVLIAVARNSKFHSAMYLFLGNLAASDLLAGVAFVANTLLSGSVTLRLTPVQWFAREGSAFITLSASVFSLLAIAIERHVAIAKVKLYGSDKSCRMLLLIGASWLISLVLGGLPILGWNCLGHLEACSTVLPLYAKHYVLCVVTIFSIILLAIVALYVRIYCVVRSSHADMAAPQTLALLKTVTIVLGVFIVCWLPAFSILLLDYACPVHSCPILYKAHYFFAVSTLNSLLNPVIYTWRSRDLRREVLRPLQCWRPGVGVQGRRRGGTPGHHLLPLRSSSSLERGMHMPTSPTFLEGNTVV
T3 sequence (O95136 whole entry): as above

As for `O=C(O)Cc1nn(Cc2cn3cc(OCC4CC4)c(Cl)cc3n2)c2ccccc2c1=O` [Compound 89, 2-[1-[[7-chloro-6-(cyclopropylmethoxy)imidazo[1,2-a]pyridin-2-yl]methyl]-4-oxo-cinnolin-3-yl]acetic acid], the EC50 with HFL-1 cells [1] is 5.7 nM; in the experiment on HFL-1 cells [2], 64.5 nM; in experiment [3] it was 6610 nM; in experiment [4], not below 19800 nM.
The like results for `COC(C(=O)O)c1nn(Cc2cn3cc(OCC4CC4)c(Cl)cc3n2)c2ccccc2c1=O` (centres unmarked) [Compound 94, 2-[1-[[7-chloro-6-(cyclopropylmethoxy)imidazo[1,2-a]pyridin-2-yl]methyl]-4-oxo-cinnolin-3-yl]-2-methoxy-acetic acid] were, in that order, 105 nM, 267 nM, 19800 nM and not below 19800 nM.
The like results for `O=C(O)C1(c2nn(Cc3cn4cc(OCC5CC5)c(Cl)cc4n3)c3ccccc3c2=O)CC1` [Compound 96, 1-[1-[[7-chloro-6-(cyclopropylmethoxy)imidazo[1,2-a]pyridin-2-yl]methyl]-4-oxo-cinnolin-3-yl]cyclopropanecarboxylic acid] were, in that order, 30 nM, 425 nM, 19800 nM and not below 19800 nM.
For `CCC(C(=O)O)c1nn(Cc2cn3cc(OCC4CC4)c(Cl)cc3n2)c2ccccc2c1=O` (centres unmarked) [Compound 98, 2-[1-[[7-chloro-6-(cyclopropylmethoxy)imidazo[1,2-a]pyridin-2-yl]methyl]-4-oxo-cinnolin-3-yl]butanoic acid], in that order: 5.69 nM, 26.9 nM, 19800 nM and not below 19800 nM.
With `O=C(O)Cn1nc(Cn2cc3cc(OCC4CC4)c(Cl)cc3n2)c2ccccc2c1=O` [Compound 114, 2-[4-[[6-chloro-5-(cyclopropylmethoxy)indazol-2-yl]methyl]-1-oxo-phthalazin-2-yl]acetic acid], the EC50 with HFL-1 cells [1] was 32.4 nM; with HFL-1 cells [2], 1660 nM; in experiment [3] it was 627 nM; in experiment [4], not below 19900 nM.
For `O=C(O)Cn1nc(Cc2nc3cc(Cl)c(OCC(F)F)cc3[nH]2)c2ccccc2c1=O` [Compound 118, 2-[4-[[5-chloro-6-(2,2-difluoroethoxy)-1H-benzimidazol-2-yl]methyl]-1-oxo-phthalazin-2-yl]acetic acid], in that order: 25.5 nM, 95.2 nM, 19800 nM and not below 19800 nM.
The like results for `O=C(O)Cn1nc(Cc2nc3cc(OCC4CC4)c(C(F)(F)F)cc3[nH]2)c2ccccc2c1=O` [Compound 123, 2-[4-[[5-(cyclopropylmethoxy)-6-(trifluoromethyl)-1H-benzimidazol-2-yl]methyl]-1-oxo-phthalazin-2-yl]acetic acid] were, in that order, 1.76 nM, 25.9 nM, 19800 nM and 1840 nM.
For the compound `O=C(O)Cn1nc(Cc2nc3cc(OCC4CC4)c(F)cc3[nH]2)c2ccccc2c1=O` [Compound 124, 2-[4-[[5-(cyclopropylmethoxy)-6-fluoro-1H-benzimidazol-2-yl]methyl]-1-oxo-phthalazin-2-yl]acetic acid], the 50% effective concentration (EC50) in the experiment with HFL-1 cells [1] came out at 66.6 nM; in the experiment with HFL-1 cells [2], 446 nM; in experiment [3] it was 19800 nM; in experiment [4] it was 13200 nM.
As to `N#Cc1cc2nc(Cc3nn(CC(=O)N4CCOCC4)c(=O)c4ccccc34)[nH]c2cc1OCC(F)F` [Compound 171, 6-(2,2-difluoroethoxy)-2-[[3-(2-morpholino-2-oxo-ethyl)-4-oxo-phthalazin-1-yl]methyl]-1H-benzimidazole-5-carbonitrile], the EC50 is 30 nM in experiment [5]; 23.1 nM in the experiment on HFL-1 cells [1]; 44.9 nM in the experiment with HFL-1 cells [2]; 19800 nM in experiment [3]; not below 19800 nM in experiment [4].
Turning to `N#Cc1cc2[nH]c(Cc3nn(CC4CCCN4)c(=O)c4ccccc34)nc2cc1OCC(F)F` (centres unmarked) [compound 1, 6-(2,2-difluoro-ethoxy)-2-[[4-oxo-3-(pyrrolidin-2-ylmethyl)-phthalazin-1-yl]-methyl]-3H-benzimidazole-5-carbonitrile], the concentration giving a half-maximal response (EC50) on S1PR2 was 3930 nM; with HFL-1 cells [1] it was 3320 nM; in the experiment on HFL-1 cells [2] it was 15600 nM; in experiment [3], 19800 nM; in experiment [4], not below 19800 nM.
Turning to `CC(C(=O)O)c1nn(Cc2cn3cc(OCC4CC4)c(Cl)cc3n2)c2ccccc2c1=O` (centres unmarked) [compound 4, 2-[1-[[7-chloro-6-(cyclopropyl-methoxy)imidazo-[1,2-a]pyridin-2-yl]methyl]-4-oxo-cinnolin-3-yl]propanoic acid], the EC50 in the experiment on HFL-1 cells [1] is 1.64 nM; with HFL-1 cells [2] it was 19.2 nM; in experiment [3], 19800 nM; in experiment [4] it was not below 19800 nM.
For `C[C@H](C(=O)O)n1nc(Cn2cc3cc(OCC4CC4)c(Cl)cc3n2)c2ccccc2c1=O` [compound 17, ((2R)-2-[4-[[6-chloro-5-(cyclo-propylmethoxy)-indazol-2-yl]-methyl]-1-oxo-phthalazin-2-yl]-propanoic acid)], in that order: 3.02 nM, 211 nM, 19800 nM and 8810 nM.
The like results for `C[C@@H](C(=O)O)n1nc(Cn2cc3cc(OCC4CC4)c(Cl)cc3n2)c2ccccc2c1=O` [compound 18, (2S)-2-[4-[[6-chloro-5-(cyclo-propylmethoxy)-indazol-2-yl]-methyl]-1-oxo-phthalazin-2-yl]propanoic acid] were, in that order, 210 nM, 22500 nM, 19800 nM and not below 19800 nM.
For `C[C@H](C(=O)O)c1nn(Cc2cn3cc(OCC4CC4)c(Cl)cc3n2)c2ccccc2c1=O` [compound 19, (2S)-2-[1-[[7-chloro-6-(cyclo-propylmethoxy)-imidazo[1,2-a]-pyridin-2-yl]-methyl]-4-oxo-cinnolin-3-yl]-propanoic acid], in that order: 1.29 nM, 18.2 nM, 19900 nM and 19900 nM.
On to `C[C@@H](C(=O)O)c1nn(Cc2cn3cc(OCC4CC4)c(Cl)cc3n2)c2ccccc2c1=O` [compound 20, (2R)-2-[1-[[7-chloro-6-(cyclo-propylmethoxy)-imidazo[1,2-a]pyridin-2-yl]-methyl]-4-oxo-cinnolin-3-yl]-propanoic acid], for which the EC50 in the experiment with HFL-1 cells [1] was 134 nM; in the experiment on HFL-1 cells [2] it was 3320 nM; in experiment [3], 19800 nM; in experiment [4], not below 19800 nM.
